Source: ChEMBL document CHEMBL5143686, “Development of Azaindole-Based Frameworks as Potential Antiviral Agents and Their Future Perspectives” (J Med Chem, 2022)
In brackets after ≈: the same amount, converted by molar mass. Values belong to the compound of their own block, whether it stands above or below them.

Legend:
[1] = test system: Human immunodeficiency virus 1; experiment: Antiviral activity against HIV-1 assessed as inhibition of viral growth; type: functional, organism-based
[2] = Basic dissociation constant, pKa of the compound
[3] = Solubility of the compound at pH 5.4; type: physicochemical; details: buffer
[4] = test system: Human immunodeficiency virus 1; experiment: Antiviral activity against HIV-1 JR-CSF assessed as inhibition of viral growth; type: functional, organism-based; details: Human immunodeficiency virus 1, JR-CSF
[5] = Oral bioavailability in monkey; type: ADME, organism-based, Macaca mulatta; details: rhesus monkey, in vivo
[6] = Oral bioavailability in rat; type: ADME, organism-based; details: in vivo
[7] = test system: Human immunodeficiency virus 1; experiment: Antiviral activity against HIV-1 NL4-3 T-tropic (X4) infected in human MT2 cells assessed as inhibition of viral growth by ELISA; type: functional, organism-based; details: Human immunodeficiency virus 1, NL4-3 T-tropic (X4)
[8] = test system: Human immunodeficiency virus 1; experiment: Antiviral activity against HIV-1 JRFL macrophage-tropic (R5) infected in human PM1 cells assessed as inhibition of viral growth by ELISA; type: functional, organism-based; details: Human immunodeficiency virus 1, JRFL macrophage-tropic (R5)
[9] = test system: Human immunodeficiency virus 1; experiment: Antiviral activity against HIV-1 TLAV T-tropic (X4)/macrophage-tropic (R5) infected in human MT2 cells assessed as inhibition of viral growth by ELISA; type: functional, organism-based; details: Human immunodeficiency virus 1, TLAV T-tropic (X4)/macrophage-tropic (R5)
[10] = test system: Human immunodeficiency virus 1; experiment: Antiviral activity against HIV-1 LAI T-tropic (X4) infected in human MT2 cells assessed as inhibition of viral growth by ELISA; type: functional, organism-based; details: Human immunodeficiency virus 1, LAI T-tropic (X4)
[11] = test system: Human immunodeficiency virus 1; experiment: Antiviral activity against HIV-1 SF-162 macrophage-tropic (R5) infected in human PM1 cells assessed as inhibition of viral growth by ELISA; type: functional, organism-based; details: Human immunodeficiency virus 1, SF-162 macrophage-tropic (R5)
[12] = Oral bioavailability in dog; type: ADME, organism-based, Canis lupus familiaris; details: in vivo
[13] = test system: Human immunodeficiency virus 1; experiment: Antiviral activity against HIV-1 Bal macrophage-tropic (R5) infected in human PM1 cells assessed as inhibition of viral growth by ELISA; type: functional, organism-based; details: Human immunodeficiency virus 1, Bal macrophage-tropic (R5)
[14] = test system: Human immunodeficiency virus 1; experiment: Antiviral activity against HIV-1 SF-2 T-tropic (X4) infected in human MT2 cells assessed as inhibition of viral growth by ELISA; type: functional, organism-based; details: Human immunodeficiency virus 1, SF-2 T-tropic (X4)
[15] = Aqueous solubility of the compound; type: physicochemical

SMILES: Cc1csc(-c2ccc(F)c3c(C(=O)C(=O)N4CCN(C(=O)c5ccccc5)CC4)c[nH]c23)n1
- EC50 [1]: 0.0058 nM

SMILES: O=C(C(=O)N1CCN(C(=O)c2ccccc2)CC1)c1c[nH]c2c(-c3nccs3)ccc(F)c12
- EC50 [1]: 0.057 nM

- pKa [2]: 8.26
SMILES: c1cc2[nH]ccc2cn1

- solubility [3]: > 12000 µg/mL
SMILES: COc1cnc(OC)c2c1c(C(=O)C(=O)N1CCN(C(=O)c3ccccc3)CC1)cn2COP(=O)(O)O.NCCCC[C@H](N)C(=O)O

- pKa [2]: 6.94
SMILES: c1cnc2cc[nH]c2c1

SMILES: Cc1ncn(-c2ncc(F)c3c(C(=O)C(=O)N4CC5CN(C(=O)c6ccccc6)CC5C4)c[nH]c23)n1 (stereo not given)
- IC50 [4]: 0.8 nM

- bioavailability [5]: 60%
- bioavailability [6]: 90%
SMILES: COc1ncc(OC)c2c(C(=O)C(=O)N3CCN(C(=O)c4ccccc4)CC3)c[nH]c12

- bioavailability [12]: 77%
- bioavailability [5]: 24%
- bioavailability [6]: 19%
- solubility [15]: 170 µg/mL (≈ 418 µM)
SMILES: COc1ccnc2[nH]cc(C(=O)C(=O)N3CCN(C(=O)c4ccccc4)C[C@@H]3C)c12
- EC50 [7]: 2.94 nM
- EC50 [8]: 1.47 nM
- EC50 [9]: 0.85 nM
- EC50 [10]: 2.68 nM
- EC50 [11]: 3.46 nM
- EC50 [13]: 15.5 nM
- EC50 [14]: 26.5 nM

- pKa [2]: 7.93
SMILES: c1cc2cc[nH]c2cn1
